“Also recorded” adds a separate entry of the source.
How the values were obtained:
[1] = system: M3 muscarinic receptor; assay: Carbachol-induced Ca2+ response, M3 cells without RGS4 dependence; type: cell-based; conditions: for effect on carbachol-induced Ca2+ response (RGS-independent): 10 μM (FIG. 20) or as stated
Method: Calcium Mobilization Experiments:
(§1) A stable cell line was developed based upon the HEK-293 Flp-In TREx cell line (Invitrogen, Carlsbad, Calif.) that stably express the muscarinic M3 receptor and have human RGS4 expression under doxycycline control. Cells were maintained in DMEM supplemented with 10% fetal bovine serum and Penicillin (100 units/ml)-Streptomycin (100 μg/ml) under 5% CO2 at 37° C. For experiments, cells were split into 96-well black, clear bottom, poly-D-lysine coated microtiter plates (Nunc, Cat. #152037) at a density of 20,000 cells/well in DMEM containing 10% fetal bovine serum and Penicillin (100 units/ml), Streptomycin (100 μg/ml). RGS4 expression was induced by supplementing the medium with 1 μg/mL doxycycline for 24-48 hours before experimentation. Cells were loaded with Fluo-4 No Wash dye in buffer for 30 minutes at 37° C. Compounds and/or carbachol were added to the wells and the fluorescence intensity was measured using a FlexStation (Molecular Devices, Sunnyvale, Calif.) plate reader. Data analysis was performed by calculating the area under the curve or maximal fluorescence intensity from a 120 second kinetic measurement.
as §1, with “Calcium signaling transients: A” for “A”, “units/ml)-Streptomycin” for “units/ml), Streptomycin”

[2] = target: RGS4/Gα0 interaction (Homo sapiens (Human), UniProt P49798); assay: RGS4-GFP membrane translocation (confocal microscopy, HEK-293T); type: cell-based; conditions: 100 μM where stated
Method: Cellular Localization Studies:
HEK-293T cells grown to 80-90% confluency in 6-well dishes in DMEM supplemented with 10% fetal bovine serum and Penicillin (100 units/ml)-Streptomycin (100 μg/ml) under 5% CO2 at 37° C. RGS and Gα0 expression was induced by transient co-transfection with either 250 ng of full-length human RGS4 with an N-terminal GFP tag (RGS4pEGFP-C1) or a C-terminal RGS4-GFP (RGS4pDEST47) and 250 ng of pcDNA3.1 or pcDNA with wildtype human Gα0. Cells were split onto poly-D-lysine coated glass coverslips and cultured for 24-48 hours after transfection before live cell imaging. Images were acquired on an Olympus Fluoview 500 confocal microscope with a 60×1.40 numerical aperture (N.A) oil objective. Images were obtained by taking a series of stacks every 0.5 μm through the cell and combining the images into a composite stack. The light source for the fluorescent studies was a 488 nm laser with a 505-525 nm bandpass filter. Images were quantified using NIH ImageJ software version 1.43r.
Confocal Microscopy: HEK-293T cells grown to 80-90% confluency in 6-well dishes in DMEM supplemented with 10% fetal bovine serum and Penicillin (100 units/ml)-Streptomycin (100 μg/ml) under 5% CO2 at 37° C. […] Images were quantified using NIH ImageJ software version 1.43r.

[3] = target: PLCβ3 (Homo sapiens (Human), UniProt Q01970); assay: PLCβ inhibition assay; type: biochemical; conditions: Table 7
Method: PLCβ inhibition assay: Lipid vesicles containing 200 μM phosphatidylethanolamine, 50 μM PIP2 (Avanti Polar Lipids), and ˜4000-8000 cpm [^3H]-labeled PIP2 (Perkin-Elmer) per assay were generated by combining the lipids in a borosilicate glass tube and drying the mixture under a stream of nitrogen. Dried lipids were resuspended in 50 mM HEPES pH 7, 80 mM KCl, 2 mM EGTA and 1 mM DTT using a bath sonicator. Activity assays were performed in a final volume of 60 μL containing 3 ng mL^−1 PLCβ3, 50 mM HEPES pH 7, 80 mM KCl, 15 mM NaCl, 0.83 mM MgCl2, 3 mM DTT, 1 mg mL^−1 BSA, 2.5 mM EGTA, 0.2 mM EDTA, 2% DMSO, and enough CaCl2 to give a free concentration of ˜200 nM. […] The reactions were initiated by the addition of liposomes and transferred to 30° C. for 5 min. Reactions were terminated by the addition of 100 μL 10 mg mL^−1 BSA and 200 μL 10% (w/v) ice-cold trichloroacetic acid. The reactions were centrifuged at 8000 g for 5 min to pellet proteins and liposomes, and 200 μL of the resulting supernatant containing free [^3H]-IP3 was measured by scintillation counting (Ghosh et al., (2004) Methods Mol Biol 237, 67-75) GSK-3β inhibition assay: […]

[4] = system: RGS4; assay: FCPIA: Gαo binding to RGS4
Source text: FCPIA Dose Response and Reversibility Experiments:

[5] = target: Gα0 (Homo sapiens (Human), UniProt P09471); assay: Intrinsic GTP hydrolysis by Gαo (single turnover); type: biochemical
Method: Single Turnover GTPase Measurements:
Compounds were tested for the ability to inhibit the RGS4 and RGS8-stimulated increase in GTP hydrolysis by Gα0 as described previously (Roman, D. L., et al., Mol Pharmacol, 2007. 71(1): p. 169-75; Roof, R. A., et al., Chem Biol Drug Des, 2006. 67(4): p. 266-74).
Single-turnover GAP assay: Experiments were performed as previously described using purified his6-tagged Gαo (Blazer et al., Biochemistry 50, 3181-3192; Roof et al., (2008) Chem Biol Drug Des 72, 111-119).

Chain of Gα0 (P09471 whole entry): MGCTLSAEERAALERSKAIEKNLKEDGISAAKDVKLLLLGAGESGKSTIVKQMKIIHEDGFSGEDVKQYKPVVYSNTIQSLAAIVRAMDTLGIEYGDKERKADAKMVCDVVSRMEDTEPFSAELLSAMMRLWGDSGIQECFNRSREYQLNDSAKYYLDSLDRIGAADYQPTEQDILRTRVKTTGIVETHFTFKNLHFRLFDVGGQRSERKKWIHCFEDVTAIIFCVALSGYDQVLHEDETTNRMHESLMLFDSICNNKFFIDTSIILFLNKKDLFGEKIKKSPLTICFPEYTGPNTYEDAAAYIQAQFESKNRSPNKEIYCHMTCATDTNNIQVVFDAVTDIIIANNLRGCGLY
Chain of PLCβ3 (Q01970 whole entry, species assumed): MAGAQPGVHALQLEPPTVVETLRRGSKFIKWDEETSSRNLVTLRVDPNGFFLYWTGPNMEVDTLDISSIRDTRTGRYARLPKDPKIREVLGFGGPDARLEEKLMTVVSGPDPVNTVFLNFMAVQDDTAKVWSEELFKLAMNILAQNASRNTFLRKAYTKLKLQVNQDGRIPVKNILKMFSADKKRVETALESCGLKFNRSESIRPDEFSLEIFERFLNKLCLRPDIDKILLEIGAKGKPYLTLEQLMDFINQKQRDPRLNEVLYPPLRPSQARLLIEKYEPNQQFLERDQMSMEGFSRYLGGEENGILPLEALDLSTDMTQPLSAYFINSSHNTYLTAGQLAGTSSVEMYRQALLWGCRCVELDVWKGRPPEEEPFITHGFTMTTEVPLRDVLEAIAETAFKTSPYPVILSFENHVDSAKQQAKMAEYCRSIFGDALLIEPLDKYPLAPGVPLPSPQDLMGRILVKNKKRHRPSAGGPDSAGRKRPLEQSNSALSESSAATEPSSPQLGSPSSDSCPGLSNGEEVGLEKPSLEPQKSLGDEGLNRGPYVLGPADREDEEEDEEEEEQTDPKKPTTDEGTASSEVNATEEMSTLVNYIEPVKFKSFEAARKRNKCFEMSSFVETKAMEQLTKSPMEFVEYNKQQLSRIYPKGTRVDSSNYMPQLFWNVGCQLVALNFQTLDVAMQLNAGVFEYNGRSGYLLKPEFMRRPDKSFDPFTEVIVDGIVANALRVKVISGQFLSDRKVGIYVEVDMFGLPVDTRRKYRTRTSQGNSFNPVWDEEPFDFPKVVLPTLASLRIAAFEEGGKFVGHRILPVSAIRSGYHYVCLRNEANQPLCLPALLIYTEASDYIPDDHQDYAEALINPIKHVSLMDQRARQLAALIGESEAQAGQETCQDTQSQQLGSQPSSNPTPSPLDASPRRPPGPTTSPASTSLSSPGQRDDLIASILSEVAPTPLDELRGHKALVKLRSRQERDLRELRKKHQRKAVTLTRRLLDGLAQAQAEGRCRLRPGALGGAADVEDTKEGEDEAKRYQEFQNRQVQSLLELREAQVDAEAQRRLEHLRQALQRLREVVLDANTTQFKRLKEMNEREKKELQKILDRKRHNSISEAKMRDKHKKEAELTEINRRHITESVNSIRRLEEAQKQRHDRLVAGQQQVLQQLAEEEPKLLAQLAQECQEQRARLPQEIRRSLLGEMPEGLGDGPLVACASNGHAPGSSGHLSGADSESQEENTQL
Chain of RGS4/Gα0 interaction (P49798 whole entry): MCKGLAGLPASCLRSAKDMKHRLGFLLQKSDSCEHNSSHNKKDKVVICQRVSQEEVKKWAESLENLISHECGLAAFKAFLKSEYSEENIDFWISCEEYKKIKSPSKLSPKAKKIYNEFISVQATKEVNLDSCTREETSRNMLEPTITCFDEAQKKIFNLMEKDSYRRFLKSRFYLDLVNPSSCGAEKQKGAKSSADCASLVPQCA

With `CCCCn1c(=O)sn(CC)c1=O` [CCG-203769, 2-ethyl-4-butyl-1,2,4-thiadiazolidine-3,5-dione] as the compound, how does the “concentration above which carbachol Ca2+ transient is inhibited” value [1] read?
Its value is over 3 µM.

And the “effect on carbachol-induced Ca2+ response (RGS-independent)” value [1]?
The value was “without affecting M3-mediated calcium signal; also recorded: does not directly affect the carbachol stimulation”.

What about the “effect on carbachol-induced Ca2+ response (RGS-independent)” value ([1]; listed as 11b) of the same compound?
The value was “no effect”.

And the “reversal of Gα0-induced RGS4 membrane translocation” value [2]?
Its value is “reverses the membrane translocation”.

What about the IC50 [3] of the same compound?
The IC50 was over 100 µM.

What about the “reversibility of RGS4 inhibition after washing” value ([4]; 100 μM CCG-50014 or 500 nM CCG-203769, beads washed) of the same compound?
Its value is “irreversible”.

What about the IC50 ([4]; FCPIA, listed as 11b, read-out: IC50 against RGS4) of the same compound?
Its IC50 is 14.4 nM.

What about the “RGS4 Hill Slope” value ([4]; Table 3) of the same compound?
The value was −0.71.

What about the “basal GTPase activity of the G protein” value [5] of the same compound?
The value was “without inhibiting the basal GTPase activity”.

Source: patent publication US8865750B2, “Small molecule inhibitors of RGS proteins” (The Regents of The University of Michigan, priority 2011, dated 2014)
